Entries after “also recorded” stand apart in the source; their conditions may differ.
How the values were obtained:
α3β GlyR = molecular target: T1, α3β GlyR (Rattus norvegicus, UniProt P20781+P24524); assay: cell-based; assay type: cell-based
T1 construct: The cells were transfected with plasmids encoding the following proteins; expressed in transfected cells; host or cells: HEK293 (ATCC CRL-1573)
Protocol: (§1) The cells were transfected with plasmids encoding the following proteins: (i). rat GlyR α (1, 2, 3) subunits alone or combined with rat β subunits (Uniprot Accession Numbers: Q546L7, P22771, P20236, P20781); and (ii). rat GABAAR α1 combined with rat β2 and γ2 subunits (Uniprot Accession Numbers: P62813, P63138, P18508). The EGFP expression was used as a marker of successful protein expression. The transfection was performed using Lipofectamine 2000 (Invitrogen, ThermoFisher, Carlsbad, CA, USA) using the fabricant protocol. The plasmids used to express GlyRs and GABAARs have been previously described. To track the successful expression of GlyR β subunits and the GABAA γ2 or β2 subunit, these proteins were subcloned in the pIRES2-EGFP vector. The transfection ratio to obtain β-containing GlyRs was 1:5 of α:β, while the expression of γ2-containing GABAA receptors was 1:2:5 of α:β:γ2 [14, 15]. Chimeric GlyRs were described in a previous report. Site directed mutagenesis was performed by Charm Gene Science Mutagenex LLC. (Cumming, GA, USA). All the constructs were checked by full-length sequencing (SNPSaurus, Eugene, OR, USA).
(§2) In brief, patch electrodes (3–4 MΩ) were pulled from borosilicate glasses in a PC-100 puller (Narishige, Tokyo, Japan); then, they were filled with an intracellular solution, which contained (in mM) 120 CsCl, 8 EGTA, 10 HEPES (pH 7.4), 4 MgCl2, 0.5 GTP, and 2 ATP. The extracellular solution contained (in mM) 140 NaCl, 5.4 KCl, 2.0 CaCl2, 1.0 MgCl2, 10 HEPES (pH 7.4), and 10 glucose. Whole-cell patch-clamp recordings were performed at −60 mV with an Axoclamp 200B (Molecular Devices, Sunnyvale, CA, USA) or with HEKA EPC-10 (HEKA Elektronik GmbH, Reutlingen, Germany) amplifiers. […] Brief (3–5 s) pulses of agonist together with alkaloids were applied to cells. Stock solutions of the alkaloids were prepared in high purity distilled water. Aliquots of these stock solutions were diluted in reservoirs containing extracellular solution. […] The concentration–response curve parameters for the alkaloid inhibition (IC50, nH, and the maximal current inhibition) were obtained from the fitted curve of normalized concentration–response data points to the equation Iagonist = Imax (agonist)nH/((agonist)nH + (EC50)nH). The IC50 curves are best-fit mean ± SE from pooled data. […] The concentration of agonist corresponds to the sub-saturating agonist concentration used to obtain the IC50 for each alkaloid on a given GlyR subtype.

α1β GlyR = molecular target: T2, α1β GlyR (Rattus norvegicus, UniProt P07727+P20781); assay: cell-based
T2 construct: The cells were transfected with plasmids encoding the following proteins; expressed in transfected cells; host or cells: HEK293 (ATCC CRL-1573)
Protocol: as §1
(§3) In brief, patch electrodes (3–4 MΩ) were pulled from borosilicate glasses in a PC-100 puller (Narishige, Tokyo, Japan); then, they were filled with an intracellular solution, which contained (in mM) 120 CsCl, 8 EGTA, 10 HEPES (pH 7.4), 4 MgCl2, 0.5 GTP, and 2 ATP. The extracellular solution contained (in mM) 140 NaCl, 5.4 KCl, 2.0 CaCl2, 1.0 MgCl2, 10 HEPES (pH 7.4), and 10 glucose. Whole-cell patch-clamp recordings were performed at −60 mV with an Axoclamp 200B (Molecular Devices, Sunnyvale, CA, USA) or with HEKA EPC-10 (HEKA Elektronik GmbH, Reutlingen, Germany) amplifiers. […] Brief (3–5 s) pulses of agonist together with alkaloids were applied to cells. Stock solutions of the alkaloids were prepared in high purity distilled water. Aliquots of these stock solutions were diluted in reservoirs containing extracellular solution. […] The concentration–response curve parameters for the alkaloid inhibition (IC50, nH, and the maximal current inhibition) were obtained from the fitted curve of normalized concentration–response data points to the equation Iagonist = Imax (agonist)nH/((agonist)nH + (EC50)nH). The IC50 curves are best-fit mean ± SE from pooled data. […] The inhibition constant (Ki) was calculated using the Cheng–Prusoff equation (Ki = IC50/((2 + ([Agonist]/EC50)^nH)^1/nH − 1). The concentration of agonist corresponds to the sub-saturating agonist concentration used to obtain the IC50 for each alkaloid on a given GlyR subtype.

[1] = in vivo studies; cited from earlier work
α1β2γ2 GABAARs = molecular target: T3, α1β2γ2 GABAARs (Rattus norvegicus, UniProt P62813+P63138); assay type: cell-based; details: 50 μM alkaloid; 1 μM GABA
T3 construct: The cells were transfected with plasmids encoding the following proteins; expressed in transfected cells; host or cells: HEK293 (ATCC CRL-1573)
Protocol: as §1, §2

α3 GlyR = molecular target: T4, α3 GlyR (Rattus norvegicus, UniProt P24524); assay: cell-based; assay type: cell-based
T4 construct: expressed in transfected cells; host or cells: HEK293 (ATCC CRL-1573)
T4 sequence (P24524 34-464): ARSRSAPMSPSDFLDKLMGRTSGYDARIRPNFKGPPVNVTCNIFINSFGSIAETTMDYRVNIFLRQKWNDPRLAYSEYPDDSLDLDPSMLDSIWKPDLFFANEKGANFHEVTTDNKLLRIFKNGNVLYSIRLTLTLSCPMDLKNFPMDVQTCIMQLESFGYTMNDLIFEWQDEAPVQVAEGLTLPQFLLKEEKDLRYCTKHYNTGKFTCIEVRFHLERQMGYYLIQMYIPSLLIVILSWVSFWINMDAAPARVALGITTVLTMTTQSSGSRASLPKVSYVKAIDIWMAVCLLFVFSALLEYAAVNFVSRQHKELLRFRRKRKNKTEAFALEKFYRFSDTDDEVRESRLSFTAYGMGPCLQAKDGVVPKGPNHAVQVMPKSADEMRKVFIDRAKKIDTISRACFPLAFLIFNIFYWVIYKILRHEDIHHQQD
Protocol: as §1, §3

α2β GlyR = molecular target: T5, α2β GlyR (Rattus norvegicus, UniProt P20781+P22771); assay: cell-based; assay type: cell-based
T5 construct: The cells were transfected with plasmids encoding the following proteins; expressed in transfected cells; host or cells: HEK293 (ATCC CRL-1573)
Protocol: as §1, §3

α1 GlyR = molecular target: T6, α1 GlyR (Rattus norvegicus, UniProt P07727); assay: cell-based; assay type: cell-based
T6 construct: expressed in transfected cells; host or cells: HEK293 (ATCC CRL-1573)
T6 sequence (P07727 29-457): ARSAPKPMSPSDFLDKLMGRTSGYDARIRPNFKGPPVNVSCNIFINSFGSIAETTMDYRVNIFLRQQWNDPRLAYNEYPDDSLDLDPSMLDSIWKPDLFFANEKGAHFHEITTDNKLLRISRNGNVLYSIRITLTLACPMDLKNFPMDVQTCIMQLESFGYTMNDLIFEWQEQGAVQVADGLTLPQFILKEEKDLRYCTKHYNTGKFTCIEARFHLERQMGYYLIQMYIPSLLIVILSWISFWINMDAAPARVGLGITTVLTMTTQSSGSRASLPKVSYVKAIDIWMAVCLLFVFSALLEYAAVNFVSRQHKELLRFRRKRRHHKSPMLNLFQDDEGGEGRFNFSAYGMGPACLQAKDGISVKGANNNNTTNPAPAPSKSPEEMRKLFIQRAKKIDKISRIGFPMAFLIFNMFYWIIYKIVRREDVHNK
Protocol: as §1, §3

α2 GlyR = molecular target: T7, α2 GlyR (Rattus norvegicus, UniProt P22771); assay: cell-based; assay type: cell-based
T7 construct: The cells were transfected with plasmids encoding the following proteins; expressed in transfected cells; host or cells: HEK293 (ATCC CRL-1573)
T7 sequence (P22771 28-452): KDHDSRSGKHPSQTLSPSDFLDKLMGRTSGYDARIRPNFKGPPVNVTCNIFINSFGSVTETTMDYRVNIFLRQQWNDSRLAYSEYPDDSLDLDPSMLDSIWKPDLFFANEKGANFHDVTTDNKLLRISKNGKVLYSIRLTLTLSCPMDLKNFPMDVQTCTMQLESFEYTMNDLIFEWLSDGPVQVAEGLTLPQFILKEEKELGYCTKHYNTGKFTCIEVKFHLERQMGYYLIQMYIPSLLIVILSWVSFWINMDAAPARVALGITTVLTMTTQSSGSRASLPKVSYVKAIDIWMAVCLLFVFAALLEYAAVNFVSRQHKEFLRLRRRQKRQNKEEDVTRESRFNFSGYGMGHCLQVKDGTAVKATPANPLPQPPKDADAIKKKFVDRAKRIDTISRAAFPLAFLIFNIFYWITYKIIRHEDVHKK
Protocol: as §1, §3

[2] = percentage change of glycine-evoked current

T5 sequence (P20781 23-496, one chain of several): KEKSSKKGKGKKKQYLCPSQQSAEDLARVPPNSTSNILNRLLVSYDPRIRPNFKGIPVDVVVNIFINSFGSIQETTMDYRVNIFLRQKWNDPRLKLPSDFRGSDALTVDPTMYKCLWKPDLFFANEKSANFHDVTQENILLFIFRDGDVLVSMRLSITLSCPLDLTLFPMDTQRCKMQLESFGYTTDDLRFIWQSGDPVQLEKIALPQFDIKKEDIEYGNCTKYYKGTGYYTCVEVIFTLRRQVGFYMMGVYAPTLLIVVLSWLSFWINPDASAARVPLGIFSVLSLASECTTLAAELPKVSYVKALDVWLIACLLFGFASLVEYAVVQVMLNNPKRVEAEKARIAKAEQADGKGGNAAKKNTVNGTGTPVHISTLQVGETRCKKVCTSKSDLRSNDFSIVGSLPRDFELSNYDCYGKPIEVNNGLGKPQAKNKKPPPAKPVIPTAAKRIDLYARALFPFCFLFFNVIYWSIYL
T2 sequence (P20781 23-496, one chain of several): as above
T1 sequence (P20781 23-496, one chain of several): as above
T3 sequence (P62813 28-455): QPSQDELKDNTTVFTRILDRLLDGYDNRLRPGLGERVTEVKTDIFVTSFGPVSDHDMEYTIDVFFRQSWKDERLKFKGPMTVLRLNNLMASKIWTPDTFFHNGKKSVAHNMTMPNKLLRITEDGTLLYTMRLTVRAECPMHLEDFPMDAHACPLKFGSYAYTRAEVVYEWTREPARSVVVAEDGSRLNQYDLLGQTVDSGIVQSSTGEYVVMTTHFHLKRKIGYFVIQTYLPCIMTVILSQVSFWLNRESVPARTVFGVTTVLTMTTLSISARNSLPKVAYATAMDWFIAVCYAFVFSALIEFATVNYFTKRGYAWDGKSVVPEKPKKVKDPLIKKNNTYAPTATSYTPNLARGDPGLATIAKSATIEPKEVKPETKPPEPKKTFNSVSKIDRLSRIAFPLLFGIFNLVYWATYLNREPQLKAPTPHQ
T3 sequence (P63138 26-474): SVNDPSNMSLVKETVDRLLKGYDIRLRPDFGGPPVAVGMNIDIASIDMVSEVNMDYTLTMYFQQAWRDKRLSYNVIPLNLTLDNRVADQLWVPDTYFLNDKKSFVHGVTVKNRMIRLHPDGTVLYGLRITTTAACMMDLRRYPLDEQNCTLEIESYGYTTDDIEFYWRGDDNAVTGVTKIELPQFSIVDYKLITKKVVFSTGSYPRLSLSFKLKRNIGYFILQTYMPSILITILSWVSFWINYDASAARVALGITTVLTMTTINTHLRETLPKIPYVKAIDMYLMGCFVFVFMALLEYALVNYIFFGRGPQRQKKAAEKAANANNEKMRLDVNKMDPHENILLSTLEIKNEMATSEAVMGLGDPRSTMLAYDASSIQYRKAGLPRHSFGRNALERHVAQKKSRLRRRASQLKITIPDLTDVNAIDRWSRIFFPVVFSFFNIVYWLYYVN
T3 sequence (P18508 39-466 partner): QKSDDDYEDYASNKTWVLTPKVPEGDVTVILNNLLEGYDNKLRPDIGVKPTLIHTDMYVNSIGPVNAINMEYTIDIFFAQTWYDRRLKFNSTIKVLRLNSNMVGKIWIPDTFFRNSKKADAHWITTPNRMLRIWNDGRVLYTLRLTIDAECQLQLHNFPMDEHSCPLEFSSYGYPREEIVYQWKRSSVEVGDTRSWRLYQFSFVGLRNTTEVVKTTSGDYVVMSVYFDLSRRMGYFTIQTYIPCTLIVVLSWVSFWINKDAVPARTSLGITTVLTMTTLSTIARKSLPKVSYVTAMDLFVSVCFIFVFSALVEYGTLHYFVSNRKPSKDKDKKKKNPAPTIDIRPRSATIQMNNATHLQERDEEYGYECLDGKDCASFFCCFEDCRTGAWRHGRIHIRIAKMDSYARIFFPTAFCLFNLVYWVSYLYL

CCC1=N[C@H]2C[C@@]3(C(=O)N(OC)c4ccccc43)[C@H]3C[C@@H]1[C@@H]2CO3 [humantenmine]
Maximal Modulation Concentration (α3β GlyR): 300 µM | Maximal Modulation (α3β GlyR; [2]): −15.6 ± 3.8% | Maximal Modulation Concentration (α1β GlyR): 0.01 µM | Maximal Modulation (α1β GlyR; [2]): −7.33 ± 10.8% | LD50 [1]: lower than 0.2 mg/kg | modulation of GABAARs (in words) (α1β2γ2 GABAARs): did not elicit any detectable alterations; also recorded: insensitive | Maximal Modulation Concentration (α3 GlyR): 0.1 µM | Maximal Modulation (α3 GlyR; [2]): −20.2 ± 10.7% | Maximal Modulation Concentration (α2β GlyR): 50 µM | Maximal Modulation (α2β GlyR; [2]): −10.3 ± 11.2% | Maximal Modulation Concentration (α1 GlyR): 300 µM | modulation of glycine-evoked current (α1 GlyR; 300 μM of the alkaloid): −19.2 ± 7.8% | modulation of α1GlyRs (in words) (α1 GlyR; concentration range of 10 μM to 300 μM): did not display any detectable activity; also recorded: did not significantly modulate | Maximal Modulation (α1 GlyR; [2]): −19.2 ± 7.8% | Maximal Modulation Concentration (α2 GlyR): 50 µM | Maximal Modulation (α2 GlyR; [2]): 8.7 ± 9.6%
